Data: patent US20220125753A1, “COMPOSITIONS AND METHODS FOR TREATING ISCHEMIC STROKE” (The General Hospital Corporation, priority 2015, published 2022)
Entries after “also recorded” stand apart in the source; their conditions may differ. Where two headings read alike, the source gives them in different places.

Key:
[1] = system: experimental cerebral ischemia/reperfusion; conditions: cited from earlier work
clinical = conditions: human, in vivo, inhaled or intranasal, AUC (plasma)
[2] = for maximum plasma concentration / time of maximum plasma concentration: mean ± spread
[3] = cited from earlier work
Aß amyloid peptide [4] = conditions: at nanomolar concentrations; laboratory testing (Hori 2015; Elmaleh 2014); cited from earlier work
[5] = system: transient middle cerebral artery occlusion; conditions: adult rats; intracerebral injection; cited from earlier work
Aß amyloid peptide [6] = experiment: In vitro assays of Aß amyloid peptide polymerization into oligomers and aggregates; type: biochemical; conditions: at nanomolar concentrations
Protocol: One of the most routinely used approaches to monitor Aβ polymerization is the thioflavin T binding assay (Elmaleh, 2014; Hori, 2015). […] AO peptide at 5 μM was mixed with 10 μM thioflavin T with drug at different concentrations.
Fibrillization of synthetic Aß40 (left column) or Aß42 (right column) peptides was followed over 1 hour.

[7] = system: unilateral hypoxia-ischemia in neonatal rats; conditions: given at the end of the hypoxic period, assessed at 48 hours; cited from earlier work
[8] = system: hemorrhage formation after tPa treatment; conditions: adult rats; intracerebral injection; cited from earlier work
APP/PS1 mice [9] = experiment: Immunostaining of Aß and microglial marker Iba1 in brain sections; type: in vivo; conditions: 3.15 mg/kg daily for seven days vs PBS
microglial cells = experiment: Microglia culture incubated with synthetic Aß40 or Aß42, Aß ELISA of media; type: cell-based; conditions: 0.10 nM, 10 μM or 1 mM Cromolyn Sodium, 16 hours
Protocol: After the incubation, the concentrations of […]-42 (right panel) in media were measured using Aß ELISA and normalized with microglia cell number and according to the PBS control condition. (n=3 experiments; *, P<0.05, **, P<0.01)

APP/PS1 mice [10] = experiment: Short-term treatment of APP/PS1 mice, TBS soluble Aß in brain (ELISA, immunoblotting); type: in vivo; conditions: after 1 week of peripherally administered cromolyn sodium (intraperitoneally daily), 7.5 months old APP/PS1 mice
Protocol: One week after daily injection, tris-buffered saline (TBS) soluble Aßx-40 (left graph) and Aßx-42 (right graph) were measured under the condition with (black bar) or without (white bar) pre-incubation with guanidine (Gdn)-HCl using Aß ELISA. The value under the incubation with Gdn-HCl show the concentration of total TBS soluble Aß, and the value under the no incubation with Gdn-HCl show the concentration of monomeric Aß. FIG. 5B: oligomeric Aß in TBS soluble brain extracts were measured using 82E1/82E1 Aß oligomer specific ELISA. FIG. 5C illustrates representative immunoblotting of TBS soluble brain extracts with anti-Aß antibody (6E10 and 82E1) (left panel). The densitometry of monomeric Aß was quantified (right graph). (n=3-5/group; *, P<0.05, **, P<0.01).

[11] = 34.2 mg double inhaled dose, range

SMILES: O=C([O-])c1cc(=O)c2c(OCC(O)COc3cccc4oc(C(=O)[O-])cc(=O)c34)cccc2o1.[Na+].[Na+] [Cromolyn]
- survival of experimental animals [1]: improved survival
- AUC (clinical; 17.1 mg, 17.1 mg single dose inhalation, mean ± spread): 148 ± 67.1 ng·h/mL
- AUC (clinical; 17.1 mg, range, 17.1 mg single dose inhalation): 44.7 to 287 ng·h/mL
- AUC (clinical; 34.2 mg, 34.2 mg double dose inhalation, mean ± spread): 254 ± 93.8 ng·h/mL
- AUC (clinical; 34.2 mg, range, 34.2 mg double dose inhalation): 122 to 443 ng·h/mL
- maximum plasma concentration ([2]; 17.1 mg single inhaled dose, healthy volunteers): 47.1 ± 33.6 ng/mL
- time of maximum plasma concentration ([2]; 17.1 mg single inhaled dose): 23.3 ± 16.9 min
- time of maximum plasma concentration, range ([2]; 17.1 mg single inhaled dose, range): 5 to 60 min
- maximum plasma concentration, range ([2]; 17.1 mg single inhaled dose, range over subjects): 14.0 to 133 ng/mL
- maximum plasma concentration ([2]; 34.2 mg double inhaled dose): 95.0 ± 45.5 ng/mL
- time of maximum plasma concentration ([2]; 34.2 mg double inhaled dose): 22.2 ± 19.4 min
- maximum plasma concentration, range [2, 11]: 36.1 to 236 ng/mL
- time of maximum plasma concentration, range [2, 11]: 5 to 60 min
- variability of plasma levels following inhalation [3]: high intraand inter-subject variability
- cromolyn uptake by asthmatics ([3]; inhalation, compared with healthy volunteers): lower than by healthy volunteers
- binding to and inhibition of amyloid β (Aβ) peptide oligomerization (Aß amyloid peptide [4]): bind to and inhibit
- neutrophil accumulation [5]: reduced
- inhibition of Aß aggregation / polymerization into oligomers and higher order aggregates (Aß amyloid peptide [6]): inhibition; also recorded: effectively inhibits
- glial activation [7]: limited
- mast cell migration/degranulation [7]: limited
- neuronal loss [7]: limited
- hemorrhage formation after tPa treatment [8]: inhibited

SMILES: O=C(O)c1cc(=O)c2c(OCC(O)COc3cccc4oc(C(=O)O)cc(=O)c34)cccc2o1 [cromolyn sodium]
- percentage of Iba1 immunoreactivity overlapping with amyloid (APP/PS1 mice [9]): higher percentage
- percentage of Iba1 immunoreactivity overlapping with amyloid (APP/PS1 mice [9]; listed as Cromolyn Sodium): increased overlap
- Aß40 levels in media of microglia culture (microglial cells; 50 nM synthetic Aß40): dose-dependent decrease
- Aß42 levels in media of microglia culture (microglial cells; 50 nM synthetic Aß42): dose-dependent decrease
- decrease of total soluble Aβ levels (APP/PS1 mice [10]): over 50%
